This is an account of results in publication PMC4102417 (PLoS Neglected Tropical Diseases, 2014).

Assay [1] relates to T. cruzi (Tulahuen strain). Briefly: microbe, parasite or virus in culture. The assay is classed as cell-based, Trypanosoma cruzi. Conditions: for activity at 10 µM / EC50: Trypanosoma cruzi, TULAHUEN, Fibroblast; for activity at 10 µM: 120 h, read-out: T. cruzi % growth @ 10 uM (Amastigotes); for EC50: read-out: T. cruzi EC50. The gist of the method: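 Tulahuen parasites expressing beta-galactosidase were added (1×10^4 trypomastigotes/well) to 3T3 fibroblasts plated 24 h earlier, 4 h before compound (10 µM final).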

For assay [2], the system named is 3T3 fibroblast cells. The assay can be described thus: cells. Particulars: 10 uM, Table S2; for activity at 10 µM: Mus musculus, NIH3T3, 72 h, read-out: Mammalian (3T3) cell % growth at 10 uM. The assay is classed as cell-based, murine.

Read-outs that look alike come from different tables or passages of the source.

Usually EC50 stands for the concentration that produces a half-maximal response. For `CC(=O)N1CCN(c2ccc(OC[C@H]3CO[C@](Cn4ccnc4)(c4ccc(Cl)cc4Cl)O3)cc2)CC1` [KETOCONAZOLE, 1-[4-(4-{[(2R,4S)-2-(2,4-dichlorophenyl)-2-(1H-imidazol-1-ylmethyl)-1,3-dioxolan-4-yl]methoxy}phenyl)piperazin-1-yl]ethan-1-one], the activity at 10 µM in assay [1] (10 uM, Table S2) turned out to be 2.1%; in assay [2], 100%. For the same compound, the EC50 in assay [1] (Table S2, amastigotes) stood at 0.3 nM; in assay [1], 1 nM.
Regarding `O=c1cc(-c2ccccc2)oc2c(O)c(O)ccc12` [7,8-DIHYDROXYFLAVONE, 7,8-dihydroxy-2-phenyl-4H-chromen-4-one], the activity at 10 µM in assay [1] (10 uM, Table S2) was 1.3%; in assay [2], 72.6%.
With `CC(=O)OC1CCC2(C)C(CC(OC(C)=O)C3(C)C4=CC(=O)OC(c5ccoc5)C4(C)CCC23)C1(C)C` (stereo not drawn) [3-DEOXO-3beta-ACETOXYDEOXYDIHYDROGEDUNIN, 18-(acetyloxy)-6-(furan-3-yl)-1,7,11,15,15-pentamethyl-4-oxo-5-oxatetracyclo[8.8.0.0^{2,7}.0^{11,16}]octadec-2-en-14-yl acetate], the activity at 10 µM in assay [1] (10 uM, Table S2) amounted to 7.8%; in assay [2], 100%.
In the case of `Cc1cccc2c3c(ccc12)C1=C(C(=O)C3=O)C(C)CO1` (stereo not shown) [DIHYDROTANSHINONE I, 6,14-dimethyl-12-oxatetracyclo[8.7.0.0^{2,7}.0^{11,15}]heptadeca-1(10),2(7),3,5,8,11(15)-hexaene-16,17-dione], the activity at 10 µM in assay [1] (10 uM, Table S2) came to 4.8%; in assay [2], 77.1%.
With `O=c1c(O)c(-c2ccccc2)oc2cccc(O)c12` [3,5-DIHYDROXYFLAVONE], the activity at 10 µM in assay [1] (10 uM, Table S2) turned out to be 12.3%; in assay [2], 99.6%.
With `COC1CC(OC2C(C)C(=O)OC(C)C(C)C(O)C(C)C(=O)C3(CO3)CC(C)C(OC3OC(C)CC(N(C)C)C3O)C2C)OC(C)C1O` (stereo not shown) [OLEANDOMYCIN PHOSPHATE, 14-{[4-(dimethylamino)-3-hydroxy-6-methyloxan-2-yl]oxy}-6-hydroxy-12-[(5-hydroxy-4-methoxy-6-methyloxan-2-yl)oxy]-5,7,8,11,13,15-hexamethyl-1,9-dioxaspiro[2.13]hexadecane-4,10-dione; phosphoric acid], the activity at 10 µM in assay [1] (10 uM, Table S2) came to 15.7%; in assay [2] it was 100%.
Turning to “1-methyl-9H-pyrido[3,4-b]indol-7-ol hydrochloride [HARMOL]”, the “T. cruzi % growth @ 10 uM (Amastigotes)” value in assay [1] (10 uM, Table S2) came out at 4.4%. Also, in assay [2], the “Mammalian (3T3) cell % growth at 10 uM” value turned out to be 71.4%.
Turning to `C#C[C@]1(O)CC[C@H]2[C@@H]3CCC4=Cc5oncc5C[C@]4(C)[C@H]3CC[C@@]21C` [DANAZOL, (1S,2R,13R,14S,17R,18S)-17-ethynyl-2,18-dimethyl-7-oxa-6-azapentacyclo[11.7.0.0^{2,10}.0^{4,8}.0^{14,18}]icosa-4(8),5,9-trien-17-ol], the activity at 10 µM in assay [1] (10 uM, Table S2) was found to be 0.9%; in assay [2], 90.2%. Also, the EC50 in assay [1] (Table S2, amastigotes) was found to be 6970 nM.
Consider `COC(=O)CC1C(C)(C)C(OC(C)=O)C2C(OC(C)=O)C34OC2(O)C1(C)C3CCC1(C)C4=CC(=O)OC1c1ccoc1` (stereo not shown) [[…], methyl 2-[14,18-bis(acetyloxy)-6-(furan-3-yl)-16-hydroxy-7,11,13,13-tetramethyl-4-oxo-5,17-dioxapentacyclo[13.2.1.0^{1,10}.0^{2,7}.0^{11,16}]octadec-2-en-12-yl]acetate], for which the activity at 10 µM turned out to be 7.2% in assay [1] (10 uM, Table S2) and 89.7% in assay [2].
For the compound `O=c1c(O)c(-c2ccc(O)c(O)c2)oc2c(OC3OC(CO)C(O)C(O)C3O)c(O)cc(O)c12` (stereo not shown) [GOSSYPIN, 2-(3,4-dihydroxyphenyl)-3,5,7-trihydroxy-8-{[3,4,5-trihydroxy-6-(hydroxymethyl)oxan-2-yl]oxy}-4H-chromen-4-one], the activity at 10 µM in assay [1] (10 uM, Table S2) was found to be 17.7%; in assay [2], 100%.
`COc1ccc2c(c1)OC/C(=C/c1ccc(OC)c(OC)c1)C2=O` [SAPPANONE A TRIMETHYL ETHER]: the activity at 10 µM in assay [1] (10 uM, Table S2) is 7.5%; in assay [2] it was 74.6%.
